According to patent US20160090351A1, “INHIBITORS OF DEUBIQUITINATING PROTEASES” (BRANDEIS UNIVERSITY, priority 2013, published 2016):

Assays:
[1] = test system: desumoylation; assay: stabilization of SUMOylated proteins in lysates from HA-SUMO transfected HEK 293T cells; type: biochemical, human; settings: G5 5 μM, C4 300 μM
Experimental: Untransfected HEK 293T cell lysates were treated with the vehicle alone (DMSO at 1%) or compound and incubated at 37° C. for 2 h. Samples were analyzed by SDS-PAGE and immunoblotting with antibody recognizing K48-linked ubiquitin. D=DMSO; G5=G5 isopeptidase inhibitor 1. A-D show titrations of different compounds (see FIG. 29B for structures). E-H Lysates were prepared from HEK 293T cells expressing HA-SUMO and treated with vehicle alone (DMSO, 1%) or compound. Samples were incubated for the appropriate time and analyzed by SDS-PAGE and immunoblotting with anti-HA antibody. Representative experiments are shown. E. Vehicle control. F. G5, 5 μM; G. C4, 300 μM. H. Quantification of blots as in E-G, N=2 average and range. I-J. Lysates were prepared from HEK 293T cells expressing HA-Ub and treated with either vehicle alone (1% DMSO) or compound at 37° C. for 3 h. Samples were analyzed by SDS-PAGE and immunoblotting with anti-HA antibody. I. A representative experiment. J. Quantitation of experiments in I (N=2 average and range shown). […]
Similar effects were observed when the endogenous K48-linked ubiquitin pool was monitored in lysates prepared from wild-type HEK 293T cells (FIG. 37A-D). Unfortunately, K63-linked ubiquitin could not be detected in these lysates. The ability of C4 to stabilize SUMOylated proteins in lysates from HA-SUMO transfected HEK 293T cells was also assessed.

[2] = test system: DUBs; assay: decomposition of high molecular weight ubiquitinated proteins (HMW-Ub) in lysates of HEK 293T cells expressing HA-Ub; type: biochemical, human; settings: HEK 293T HA-Ub lysates, 37° C.
Experimental: FIG. 30 depicts data showing that diphenylcarbonates inhibit the decomposition of high molecular weight ubiquitinated proteins (HMW-Ub). Lysates were prepared from HEK 293T cells expressing HA-ubiquitin. Samples were incubated at 37° C. and reactions were quenched by the addition of reducing Laemmli buffer. HMW-Ub was assessed by SDS-PAGE and immunoblotting with anti-HA antibody. A. Representative immunoblots measuring the decomposition of HMW-Ub in lysates treated with either the DMSO vehicle, G5 (10 μM) or C4 (500 μM). B. Plot of the decomposition of HMW-Ub in lysates treated with DMSO and C4 (500 μM) (N=2; error bars denote range). C. Inhibition of HMW-Ub decomposition by diphenylcarbonates. Lysates were treated with diphenylcarbonates (50 μM). “-” denotes no treatment; D, 1% DMSO vehicle; IU1, an USP14-specific inhibitor; Bort, bortezomib, a proteasome inhibitor. D. Representative decomposition of HMW-Ub after 2 h incubation in the presence of varying concentrations of C4. See also FIG. 36. E. Quantitation of D. The values of EC50 reported in FIG. 29B are the average and S.E.M. of at least 3 independent experiments. See also FIG. 37 and FIG. 38.
Cells overexpressing HA-ubiquitin were prepared as above. Pellets were typically stored at −80° C. until required, at which time they were thawed on ice. Cell lysis was performed in lysis buffer using a Dounce homogenizer (10 strokes, with grinding, on ice: typical yield approx. 2-5 mg protein per transfected T75 flask for HEK 293T cells; 1-3 mg protein from a T75 flask for Cos-1). Crude lysate was centrifuged at 17000 g for 10 min at 4° C., after which time the concentration of the lysate was normalized to 1 mg/mL. The lysate was aliquoted into PCR strip tubes (typical volumes 75-50 μL) and compound in DMSO was added to this to give a final concentration of DMSO of 1%. Tubes were briefly centrifuged, overlaid with Chill-out wax (50 μL) and placed in a PCR machine at 37° C. with heated lid set to 37° C. Aliquots (9 μL) were removed at the stated times and immediately quenched in (2× final concentration) reducing (dithiothreitol) loading buffer and frozen (−19° C.) till required. Western blot analysis was carried out using standard methods. Samples were resolved by SDS-PAGE, transferred to PVDF [(0.45 μm) (Towbin buffer, tank apparatus, 90 V 1 hour, then overnight at 30 V, 4° C.)] then blocked in 15% milk in TBS-T HS (100 mM Tris HCl, pH 7.6, 500 mM NaCl, 0.5% […]) for at least 2 hours at RT. Afterward, membrane was washed in TBS-T HS then probed with anti HA-HRP (1:18000) for 1.33 hours at RT. Membrane was washed 3 times in TBS-T HS (15 mins) then once in TBS (15 mins) and exposed to ECL II and visualized using blue biofilm. […] When required, membranes were stripped in 100 mM glycine pH 4, 500 mM NaCl, 1% SDS, 5 mM BME, at 55° C. for 19 mins, then analyzed.
Lysates were prepared from HEK 293T cells expressing N-terminally HA-tagged ubiquitin (HA-Ub) to facilitate the observation of ubiquitinated proteins. In the absence of a DUB inhibitor, the HMW-Ub pool decomposed with a half-life of 34 min (FIG. 30A,B). […] Similar results were obtained in lysates prepared from Cos-1 cells expressing HA-Ub.

[3] = test system: K562 cells; assay: apoptosis, cell cycle and viability of K562 cells by flow cytometry; type: cell-based, human; settings: annexin V-FITC / propidium iodide, 24 hours (TU50 also 8 hours)
Experimental: (§1) K562 cells are from a myelogenous leukemia line that expresses Bcr-Abl kinase. A. K562 cells were treated with TU50 for 24 hours after which time the cells were treated with annexin V-FITC and propidium iodide. Cells were then analyzed by flow cytometry. Cells showing only annexin V-FITC were considered apoptotic whereas cells showing both annexin V-FITC and propidium iodide were considered necrotic. N=2. All points show a significant difference to the vehicle (DMSO) with p<0.05. […] All points show a significant difference to vehicle (DMSO) with p<0.02. C. Same as A, but the incubation period was 8 hours. N>2. All points show a significant difference to DMSO with p<0.02. D, K562 cells were treated with TU50 for 4 hours. Samples were analyzed by SDS-PAGE and immunoblotting with anti-Bcr-Abl antibody. E. Quantitation of blot in D. The signal for tubulin was used to normalize the Bcr-Abl signal. N=3.
(§2) FIG. 40 depicts data showing that diphenyl carbonates induce the degradation of Bcr-Abl kinase. A. K562 cells were treated with C17 for 24 h (1 dose) then analyzed for Bcr-Abl expression by western blot with anti-Abl antibody. B. Quantitation of blots in A normalized to actin. C. K562 cells were treated with C17 for 24 h then the amount of cells in G1 and apoptosis were recorded (N=3). D. K562 were treated with C15 for 4 h then analyzed for Bcr-Abl expression using western blot. E. Quantitation of Bcr-Abl from D normalized to tubulin (N=4). F. Same K562 lysates were separately analyzed for K63-linked ubiquitin. G. Quantitation of blots in F (N=4). Differences between all bars is significant p<0.01). H. K562 cells were treated with C15 for 24 h after which time cells were fixed in ethanol, treated with propodium iodide/RNAse then analyzed by FACS. Viability was calculated using forward and side scatter. I. Same experiment as H but red fluorescence was measured to determine DNA content

[4] = test system: BaF3.p210; assay: cytotoxicity in a panel of cell lines, Alamar Blue; type: cell-based, mouse
Experimental: Cytoxicity was tested against a panel of cell lines: (i) B16/F10, a metastatic mouse melanoma cell line that suppresses the tumor suppressor Gas1 (Growth arrest-specific 1); (ii) BaF3, an immortalized mouse pro-B cell line that depends on IL-3 for growth and proliferation (L-3 stimulates expression of the pro-survival Bc1-2 family member, Mc1-1; and USP9x is the deubiquitinase responsible for stabilizing Mc1-1); (iii) Cos-1, monkey kidney fibroblast immortalized with SV40 T antigen; (iv) BaF3.p210, BaF3 cells expressing Bcr-Abl kinase (p210), the mutant protein that causes chronic myelogenous leukemia, and the target of Gleevec (The expression of Bcr-Abl cause proliferation to become IL-3-independent. These cells have been widely used in the development of Bcr-Abl kinase inhibitors. USP9x stabilizes Bcr-Abl by removing Ub and blocking degradation via autophagy.); (v) HEK293T, human embryonic kidney cell line expressing SV40 T antigen; (vi) HeLa, human cervical adenocarcinoma cell line; (vii) MCF7, human breast cancer cell line; and (viii) NIH3T3, mouse fibroblast cell line. Of these, the only cells dependent on USP9x for survival are BaF3.p210 and BaF3. A. Cells were treated with a single dose of TU50 for 48 h and viable cells were measured using Alamar Blue®. EC50=8±2 μM for BaF3.p210. B. As above, except that cells were treated with TU50 for 72 h.

[5] = molecular target: T1, USP9x (Homo sapiens, UniProt Q93008); assay: HA-Ub-VS labeling in K562 cell lysates; type: biochemical
T1 construct: endogenous in cells; host or cells: K562 cell lysate
Experimental: HA-Ub-VS is commonly used to label DUBs in cell lysates. […] A. and B. K562 cell lysates were treated with compound for 40 minutes prior to activity labeling with HA-Ub-VS (1.5 μM) for 20 minutes. Samples were analyzed by SDS-PAGE and immunoblotting with anti-HA antibody. C. […] Values were derived by fitting to the in Prism.

[6] = molecular target: 20S proteasome (Homo sapiens, UniProt P28074); assay: proteasome activity (purified 20S proteasome; GFP-Ub (G76V) in Cos-1 cells); type: biochemical; settings: 20S proteasome 30 minutes, Suc-Leu-Tyr-AMC 100 μM; Cos-1 GFP-Ub (G76V) 8 hours
Experimental: A. Purified 20S proteasome was treated with compound for 30 minutes prior to addition of substrate (Suc-Leu-Tyr-AMC, 100 μM). B. Cos-1 cells expressing with GFP-Ub (G76V) were treated with compound for 8 hours, then the level of GFP was measured by flow cytometry.

[7] = test system: Bcr-Abl kinase; assay: Bcr-Abl levels in K562 cells by immunoblotting; type: cell-based, human; settings: TU50 4 hours
Experimental: as §1
FIG. 34 depicts data showing that diphenylcarbonates cause the accumulation of HMW-Ub and reduce the levels of Bcr-Abl in K562 cells. A. K562 cells were treated with diphenyl carbonates (50 μM) for 2 h and then assayed for the accumulation of K48-linked Ub. B. As in A, but Bcr-Abl was measured by immunoblotting with anti-Abl antibodies. C. K562 cells were treated with C17 (50 μM) in the presence and absence of bortezomib (6 μM) for 4 hours and Bcr-Abl was measured by immunblotting with anti-Abl antibodies. D. Quantitation of blot in C. Significance: DMSO relative to C17 and bortezomib p=0.002; DMSO relative to C17, p=0.03. E. K562 cells were treated with C15 for 4 hours then analyzed for SMAD4 monoubiquitination by western blot. F. Quantitation of blots in A. (N=3). See also FIG. 40.
as §2
Transfected cells were harvested 1.5 days post transfection. […] Typically clarified lysate was analyzed.

[8] = molecular target: cathepsin C (Homo sapiens, UniProt P53634); assay: cathepsin C inhibition; type: biochemical; settings: compounds numbered as in FIG. 5
Sequence of cathepsin C (P53634 25-463, species assumed): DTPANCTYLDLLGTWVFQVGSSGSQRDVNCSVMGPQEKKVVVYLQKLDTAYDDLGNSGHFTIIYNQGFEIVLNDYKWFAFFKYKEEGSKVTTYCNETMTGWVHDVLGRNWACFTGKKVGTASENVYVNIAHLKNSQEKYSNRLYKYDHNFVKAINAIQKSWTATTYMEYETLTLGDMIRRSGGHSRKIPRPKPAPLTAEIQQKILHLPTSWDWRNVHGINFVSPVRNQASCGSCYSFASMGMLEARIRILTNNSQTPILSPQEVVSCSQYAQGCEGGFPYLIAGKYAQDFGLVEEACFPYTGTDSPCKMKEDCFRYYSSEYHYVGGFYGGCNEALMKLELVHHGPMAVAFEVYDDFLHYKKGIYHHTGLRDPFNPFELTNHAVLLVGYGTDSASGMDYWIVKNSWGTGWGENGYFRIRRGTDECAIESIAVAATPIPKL

T1 sequence (Q93008 whole entry): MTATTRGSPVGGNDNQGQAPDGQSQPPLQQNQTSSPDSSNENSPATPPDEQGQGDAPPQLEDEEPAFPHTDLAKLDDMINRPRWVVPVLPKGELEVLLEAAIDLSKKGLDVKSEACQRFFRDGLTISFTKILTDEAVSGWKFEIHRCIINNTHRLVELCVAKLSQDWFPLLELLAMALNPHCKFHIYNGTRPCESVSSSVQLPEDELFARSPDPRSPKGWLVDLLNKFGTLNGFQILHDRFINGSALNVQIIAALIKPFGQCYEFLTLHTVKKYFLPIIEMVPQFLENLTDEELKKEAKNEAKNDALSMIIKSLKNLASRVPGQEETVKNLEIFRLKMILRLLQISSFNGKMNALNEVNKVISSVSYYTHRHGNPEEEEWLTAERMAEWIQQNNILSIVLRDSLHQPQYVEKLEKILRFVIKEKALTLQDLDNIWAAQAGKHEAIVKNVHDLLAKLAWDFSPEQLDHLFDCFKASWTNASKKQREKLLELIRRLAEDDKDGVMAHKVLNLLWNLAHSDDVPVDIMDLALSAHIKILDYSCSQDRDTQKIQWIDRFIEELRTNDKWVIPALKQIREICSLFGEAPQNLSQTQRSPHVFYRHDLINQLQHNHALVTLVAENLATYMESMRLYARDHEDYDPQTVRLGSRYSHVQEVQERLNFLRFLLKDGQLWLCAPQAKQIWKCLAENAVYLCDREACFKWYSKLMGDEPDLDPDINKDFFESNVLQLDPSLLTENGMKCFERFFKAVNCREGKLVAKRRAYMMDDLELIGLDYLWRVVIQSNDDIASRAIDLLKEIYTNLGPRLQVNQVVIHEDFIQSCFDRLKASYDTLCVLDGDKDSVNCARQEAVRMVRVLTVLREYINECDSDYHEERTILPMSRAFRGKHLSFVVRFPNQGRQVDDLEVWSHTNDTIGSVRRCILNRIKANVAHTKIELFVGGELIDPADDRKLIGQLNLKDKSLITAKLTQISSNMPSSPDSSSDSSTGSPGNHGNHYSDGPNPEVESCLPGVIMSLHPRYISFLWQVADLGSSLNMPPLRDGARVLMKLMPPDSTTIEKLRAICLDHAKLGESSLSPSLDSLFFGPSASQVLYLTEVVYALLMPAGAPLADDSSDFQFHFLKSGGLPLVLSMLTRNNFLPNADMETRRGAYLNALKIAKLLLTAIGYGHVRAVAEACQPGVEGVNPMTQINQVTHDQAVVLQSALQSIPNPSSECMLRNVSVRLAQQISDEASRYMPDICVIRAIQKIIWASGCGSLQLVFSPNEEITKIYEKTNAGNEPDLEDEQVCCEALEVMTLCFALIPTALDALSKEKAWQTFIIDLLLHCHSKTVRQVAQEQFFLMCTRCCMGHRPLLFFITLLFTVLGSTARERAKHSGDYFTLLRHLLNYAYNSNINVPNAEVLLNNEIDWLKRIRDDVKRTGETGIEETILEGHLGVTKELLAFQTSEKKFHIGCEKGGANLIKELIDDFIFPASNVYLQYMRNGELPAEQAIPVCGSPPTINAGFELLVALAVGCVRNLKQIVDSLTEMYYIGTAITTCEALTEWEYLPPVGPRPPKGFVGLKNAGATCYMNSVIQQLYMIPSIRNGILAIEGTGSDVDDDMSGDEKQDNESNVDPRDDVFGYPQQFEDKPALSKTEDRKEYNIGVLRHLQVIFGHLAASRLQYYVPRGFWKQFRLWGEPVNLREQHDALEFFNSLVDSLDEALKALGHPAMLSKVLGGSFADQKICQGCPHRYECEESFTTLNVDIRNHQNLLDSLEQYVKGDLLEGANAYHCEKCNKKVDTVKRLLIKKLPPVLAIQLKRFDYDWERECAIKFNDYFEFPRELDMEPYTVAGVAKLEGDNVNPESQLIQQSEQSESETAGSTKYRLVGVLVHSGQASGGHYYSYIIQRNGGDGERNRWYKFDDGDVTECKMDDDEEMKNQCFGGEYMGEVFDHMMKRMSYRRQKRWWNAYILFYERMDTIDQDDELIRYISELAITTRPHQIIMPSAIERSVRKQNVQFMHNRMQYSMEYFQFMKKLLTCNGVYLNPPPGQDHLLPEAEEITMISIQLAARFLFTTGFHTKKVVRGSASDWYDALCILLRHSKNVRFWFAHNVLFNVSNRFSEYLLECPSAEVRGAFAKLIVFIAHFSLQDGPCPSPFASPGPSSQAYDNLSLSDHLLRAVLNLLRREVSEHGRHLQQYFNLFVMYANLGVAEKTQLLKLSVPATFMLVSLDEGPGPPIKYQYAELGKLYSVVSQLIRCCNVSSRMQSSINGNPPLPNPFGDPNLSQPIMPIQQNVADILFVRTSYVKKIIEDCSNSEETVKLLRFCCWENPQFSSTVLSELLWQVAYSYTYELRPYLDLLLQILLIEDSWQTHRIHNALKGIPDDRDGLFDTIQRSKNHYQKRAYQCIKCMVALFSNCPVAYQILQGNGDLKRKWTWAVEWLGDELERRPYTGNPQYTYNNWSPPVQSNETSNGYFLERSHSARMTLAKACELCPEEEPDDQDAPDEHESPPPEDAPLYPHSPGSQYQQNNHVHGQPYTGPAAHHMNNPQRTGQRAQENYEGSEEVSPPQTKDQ

Q: With `NCc1ccc(OC(=O)Oc2ccccc2)cc1` [Compound C4, 4-(aminomethyl)phenyl(phenyl)carbonate] as the molecule, how does the inhibition of desumoylation [1] read?
A: The inhibition of desumoylation was “Neither G5 nor C4 inhibited desumoylation”.

Q: And the “stabilization of the HMW-Ub pool” value [2]?
A: Its value is “prevented decomposition of the HMW-Ub pool”.

Q: Which results are given for `CC(C)(C)OC(=O)NCc1cccc(N=C=S)c1` [TU50]?
A: apoptosis of K562 cells [3]: induce apoptosis of K562 cells; EC50 ([4]; BaF3.p210, single dose, 48 h, Alamar Blue, read-out: EC50, viable cells): 8 ± 2 µM; selectivity of proliferation inhibition over cell panel ([4]; panel of 8 cell lines, 48 h and 72 h): selectively inhibits proliferation of cells that depend on USP9x; selectivity of DUB inhibition ([5]; HA-Ub-VS labeling): selectively inhibits USP9x; EC50 ([5]; compound 40 minutes, then HA-Ub-VS (1.5 μM) 20 minutes): 3 ± 3 µM; effect on proteasome activity [6]: no effect on proteasome activity; Bcr-Abl kinase level [7]: cause degradation of Bcr-Abl kinase

Q: For `NCc1ccc(OC(=O)Oc2ccc(Cl)cc2)cc1` [compound 3], which “inhibition of cathepsin C” value [8] is on record?
A: Its value is “does not”.

Q: With `CC(C)(C)OC(=O)NCc1ccc(OC(=O)Oc2ccccc2)cc1` [compound 14] as the molecule, how does the “inhibition of cathepsin C” value [8] read?
A: The value was “inhibits cathepsin C”.
